Laboratory results reported in patent US20100272837A1, “TRADITIONAL CHINESE MEDICINAL COMPOSITIONS FOR TREATING DEPRESSION , FORMULATION THEREOF, METHOD FOR PREPARING THE SAME THEREOF” (HEBEI YILING MEDICINE RESEARCH INSTITUTE CO. LTD., priority 2006, published 2010).
Counter-ions that a name gives are not always drawn.

Legend:
Format in all cases: in vivo, ICR mice
[1] = tested on: mice given acetic acid; test: Stretching caused by intraperitoneal acetic acid (stretching method); settings: 0.33 g/kg body weight, gavage 3 days; 0.6% glacial acetic acid ip; during 15 minutes
Description: Method: ICR mice having a body weight of 18-22 g, half male and half female, were randomly divided into five groups according to the body weight, including the group of 5 g/kg body weight capsules of the present invention, the group of 2.5 g/kg body weight capsules of the present invention, the group of 1.25 g/kg body weight capsules of the present invention, the aspirin group (0.33 g/kg body weigh), and the normal control group (administered with isovolumetric normal saline). There were 19 mice in the normal control group, and there were 10-11 mice in each of other groups. The animals in the groups of administration with a drug were consecutively administered for 3 days by gavage. Except the normal control group, each mouse in other groups was administered by intraperitoneal injection with 0.1 ml/10 g body weight 0.6% glacial acetic acid at 1 h after the final administration. Then the times of stretching caused by glacial acetic acid during 15 minutes after injection were recorded.

[2] = tested on: normal mice; test: Analgetic effects on normal mice (hot plate method); settings: 0.33 g/kg body weight, gavage 3 days; hot plate 56±0.5
Method: ICR female mice having a body weight of 18-22 g were stochastically divided into six groups according to the body weight. Before test, the temperature of the aqueous thermostat was controlled at 56±0.5[…]. One mouse was placed on the hot plate each time, and the time of licking postpedes was defined as the pain threshold of said mouse. […] The normal pain thresholds were measured again. The average value of two normal pain thresholds was used as the pain threshold of the mouse before administration. […] There were 22 mice in the normal control group, and there were 11 mice in each of other groups.

[3] = tested on: mice given sodium pentobarbital; test: Rate of falling asleep caused by intraperitoneal sodium pentobarbital; settings: 0.33 g/kg body weight, gavage 7 days; sodium pentobarbital 35 mg/kg ip; 11 animals
Method: III. […] Method: ICR mice having a body weight of 18-22 g, half male and half female, were randomly divided into five groups according to the body weight (see Table 14 for details). The animals in the groups of administration with a drug were consecutively administered for 7 days by gavage. Mice were weighed before the last administration, and administered by intraperitoneal injection with 35 mg/kg body weight sodium pentobarbital at 1 h after the last administration. The number of animals falling asleep was recorded.

[4] = tested on: mice of reserpine depression model; test: NA, DA and 5-HT in the brain tissue of reserpine mice (fluorophotometry); settings: for 5-HT in the brain tissue of reserpine mice / DA in the brain tissue of reserpine mice / NA in the brain tissue of reserpine mice: gavage 25 days, reserpine 1 mg/kg ip
Method: The animals in the groups of administration with a drug were administered by gavage for 25 consecutive days. The normal control group and reserpine control group were administered with isovolumetric distilled water. On the 23rd day of the test, 1 mg/kg body weight of reserpine was ip administered for each group except the normal control group, and each group receiving reserpine was administered once more. At 1 hour after the last administration of reserpine, the heads of mice were cut off and the brain tissues were taken out, frozen with dry ice and preserved at −20□. The content of noradrenaline (NA), dopamine (DA) and 5-hydroxytryptamine (5-HT) in the cerebellar tissue homogenate was measured respectively by means of fluorophotometry.
(§1) At the end of the test, the heads of mice were rapidly cut off and the brain tissues were immediately taken out, promptly frozen with dry ice and moved into a refrigerator having a temperature of −20□. The tissue was defreezed before homogenization. The cerebellum, medulla oblongata and olfactory bulb were removed, and then 300 mg brain tissue was weighed with a analytical balance. Then 10 times amount by volume of acidic n-butanol (prepared by saturating 100 ml re-steamed n-butanol with NaCl, and mixing with 0.85 ml strong hydrochloric acid) were added into the brain tissue for homogenization.
(§2) The brain tissue homogenate was centrifugated (2,000 rpm) for 5 min. Then 2.5 ml supernatant was taken out and placed in centrifuge tube with a plug containing 1 ml 0.1N HC1 and 5 ml n-heptane. The centrifuge tube was placed on the KS vibrator, oscillated for 5 min and centrifugated (2,500 rpm) for 5 min. 6 to ml upper organic phase was placed into the tube having a plug and containing 0.6 ml 0.033 M NaHCO3 so as to extract 5-HIAA. Then 0.5 ml and 0.4 ml were respectively taken out from the lower aqueous phase, wherein the former was used to measure NA and DA, and the latter was used to measure 5-HT.
(§3) Internal standard tube treatment: 9 ml of the acidic n-butanol homogenate was averagely divided into 3 tubes, to two of them, 40 μl mixed standard solution (respectively containing 5 μg/ml standard substances of NA, DA and 5-HT) was added.

[5] = tested on: normal mice; test: NA, DA and 5-HT in the brain tissue of normal mice (fluorophotometry); settings: for 5-HT in the brain tissue of normal mice / DA in the brain tissue of normal mice / NA in the brain tissue of normal mice: gavage 25 days, 80 min after final administration; for effect on 5-HT in brain tissue of normal mice (in words) / effect on NA and DA in brain tissue of normal mice (in words): positive control, P<0.01
Method: Method: ICR male mice; and the groups and administration doses can be found in Table 10. The animals in the groups of administration with a drug were administered by gavage for 25 consecutive days. At 80 min after the final administration, the heads of mice were cut off and the brain tissues were taken out, frozen with dry ice and preserved at −20□. The content of noradrenaline (NA), dopamine (DA) and 5-hydroxytryptamine (5-HT) in the whole brain homogenate without cerebellum was measured respectively by means of the fluorophotometry^[2].
as §1, §2, §3
(3) Measurement: The fluorophotometry was conducted on NA, DA and 5-HT (KUANG Peigen, ZHOU Xinfu and XU Bo, Extraction of Monoamine Neurotransmitters in Brain Tissue and Measurement of the Neurotransmitters by Means of Fluorophotometry, Academic Journal of PLA Postgraduate Medical School, 1982, 3(2) 181-185).

[6] = tested on: mice of reserpine depression model; test: Body temperature of mice treated with reserpine; settings: for Body temperature, 6 h after making models: rectal temperature; for effect on fall in body temperature caused by reserpine (in words): P<0.01
Method: Method: ICR male mice (SPF-grade, having a body weight of 18-22 g) were stochastically divided into seven groups according to the body weight, and the dosages administrated are shown in Table 7. The animals in the groups of administration with a drug were administered for 22 consecutive days, and the basal body temperature (rectal temperature) of the animals was measured before administration on the 22nd day. […] The difference values of body temperature before and after administration and the difference values of their own body temperatures were calculated so as to conduct the statistical comparison by single factor analysis of variance (H. G Vogel & W. H. Vogel, Drug Discovery and Evaluation […]Guidance for Pharmacological Assays, translated by D U Guanhua et al, [M] Beijing: Science Press, 2001.409,412). The results can be found in Tables 7 and 8.

[7] = tested on: mice of reserpine depression model; test: Eyelids closing (ptosis) caused by reserpine; settings: for Number of animals which close the eyelids at 1 h after the administration, ± (semi-open eyelids) / Number of animals which close the eyelids at 1 h after the administration, − (open eyelids) / Number of animals which close the eyelids at 1 h after the administration, □ (close eyelids) / Number of animals which close the eyelids at 2 h after the administration, ± (semi-open eyelids) / Number of animals which close the eyelids at 2 h after the administration, − (open eyelids) / Number of animals which close the eyelids at 2 h after the administration, □ (close eyelids) / Number of animals which close the eyelids at 6 h after the administration, ± (semi-open eyelids) / Number of animals which close the eyelids at 6 h after the administration, − (open eyelids) / Number of animals which close the eyelids at 6 h after the administration, □ (close eyelids): gavage 22 days, reserpine 2 mg/kg ip, 15 animals; for effect on reserpine-induced ptosis (in words): P<0.01
Method: (§4) Method: ICR male mice (SPF-grade, having a body weight of 17-20 g) were stochastically divided into seven groups according to the body weight, and the administration dosages can be found in Table 1. The animals in the groups of administration with a drug were administered by gavage for 22 consecutive days. The normal control group and the reserpine control group were administered by gavage with isovolumetric distilled water (0.2 ml/10 g body weight). 2 mg/kg body weight of reserpine was administered by intraperitoneal injection on the 22nd day. After 1 h, 2 h and 6 h of injection of reserpine, animals were placed on a bracket and under observation for 15 s to record the number of animals that closed the eyelids (wherein “−” represents open eyelids; “±” represents semi-open eyelids; and “+” represents close eyelids). […] At 2 h, 4 h, and 6 h after the administration of reserpine, animals were placed at the center of a piece of circular white paper with a diameter of 7.5 cm and under observation for 15 s to record the number of animals that still remained within the circle in 15 s.

[8] = tested on: 5-HTP model mice; test: Shaking-head behavior induced by 5-hydroxytryptophane (5-HTP) after pargyline; settings: 14 mg/kg body weight; P<0.01
Description: (IV) Effects of Capsules of the Present Invention on Shaking-Head Behavior Induced by 5-hydroxytryptophane (5-HTP) 1. Principle: according to the monoamine hypothesis on the occurrence of depression, the function of antidepressant lies in that it can enhance the functions of the noradrenergic and/or serotonergic nerve. A great variety of antidepressant may enhance the effect of 5-HT by blocking the reuptake of 5-HT. 5-HTP may be used as a precursor of 5-HT, and monoamine oxidase inhibitor—pargyline hydrochloride may inhibit the enzymatic degradation thereof. The characteristic symptom—shaking-head behavior is obvious on mice. The enhancement of shaking-head behavior of mice after administration of the test drug may be used as an evidence to the fact that the inhibition of 5-HT uptaking function is the anti-depression mechanism. 2. Method: ICR male mice (20±1 g) were stochastically divided into seven groups according to the body weight, and each group comprises 12 animals. The animals in the groups of administration with a drug were consecutively administered by gavage for 21 days. […] Except the normal control group, other groups were administered with 20 mg/kg body weight of 5-HTP by intraperitoneal injection 90 min after injection of pargyline; and the times of shaking-head behavior were recorded in the following 10 minutes.

[9] = tested on: mice of reserpine depression model; test: “Excircle” behaviour (akinesia) of mice treated with reserpine; settings: for Number of animals that have excircle behaviors at 2 h, Excircle (+) / Number of animals that have excircle behaviors at 2 h, Within circle (□) / Number of animals that have excircle behaviors at 4 h, Excircle (+) / Number of animals that have excircle behaviors at 4 h, Within circle (□) / Number of animals that have excircle behaviors at 6 h, Excircle (+) / Number of animals that have excircle behaviors at 6 h, Within circle (□): gavage 22 days, reserpine 2 mg/kg ip, 15 animals; for effect on “excircle” rate of reserpine mice (in words): P<0.05 or P<0.01
Method: as §4

[10] = 0.01 g/kg body weight, 5 animals
[11] = 0.01 g/kg body weight per Table 10
[12] = 0.014 g/kg body weight, 22 days, reserpine 2 mg/kg ip
[13] = 0.050 g/kg body weight, 8 animals
[14] = 0.05 g/kg body weight per Table 10
[15] = 0.050 g/kg body weight, 22 days, reserpine 2 mg/kg ip

For `CC(=O)Oc1ccccc1C(=O)O` [Aspirin], the Stretching times [1] was 12.00 ± 9.20, the “Pain threshold, 1 h after admi.” value [2] was 18.27 ± 12.52 S and the “Pain threshold, 3 h after admi.” value [2] was 15.27 ± 2.57 S. For the same compound, the “Pain threshold, 5 h after admi.” value [2] was 16.09 ± 4.70 S, the “Number of animals falling asleep, Falling asleep” value [3] was 5 and the “Number of animals falling asleep, Not falling asleep” value [3] was 6.
For `CNCCC(Oc1ccc(C(F)(F)F)cc1)c1ccccc1` (centres unmarked) [Fluose fine hydrochloride, Fluoxetine Hydrochloride], the “5-HT in the brain tissue of reserpine mice” value [4, 10] was 707.25 ± 115.94 ng/g, the “DA in the brain tissue of reserpine mice” value [4, 10] was 1967.20 ± 562.57 ng/g and the “NA in the brain tissue of reserpine mice” value [4, 10] was 1326.48 ± 670.50 ng/g. For the same compound, the “5-HT in the brain tissue of normal mice” value ([5]; 0.01 g/kg body weight) was 841.85 ng/g, the “DA in the brain tissue of normal mice” value ([5]; 0.01 g/kg body weight) was 1432.52 ± 395.77 ng/g and the “NA in the brain tissue of normal mice” value ([5]; 0.01 g/kg body weight) was 896.46 ng/g. For the same compound, the “effect on 5-HT in brain tissue of normal mice (in words)” value [5, 11] was “notably increase the level of 5-HT”, the “effect on NA and DA in brain tissue of normal mice (in words)” value [5, 11] was “increase the level of NA and DA” and the “Body temperature difference, 6 h after making models” value [6, 12] was 2.66 ± 1.11 □. For the same compound, the “Body temperature difference, 24 h after making models” value [6, 12] was 2.27 ± 1.00 □, the “Body temperature, 6 h after making models” value [6, 12] was 35.0 ± 0.87 □ and the “effect on fall in body temperature caused by reserpine (in words)” value ([6]; 14 mg/kg body weight) was “notably antagonize the fall in body temperature”. For the same compound, the “Number of animals which close the eyelids at 1 h after the administration, ± (semi-open eyelids)” value ([7]; 0.014 g/kg body weight) was 8, the “Number of animals which close the eyelids at 1 h after the administration, − (open eyelids)” value ([7]; 0.014 g/kg body weight) was 7 and the “Number of animals which close the eyelids at 1 h after the administration, □ (close eyelids)” value ([7]; 0.014 g/kg body weight) was 0. For the same compound, the “Number of animals which close the eyelids at 2 h after the administration, ± (semi-open eyelids)” value ([7]; 0.014 g/kg body weight) was 6, the “Number of animals which close the eyelids at 2 h after the administration, − (open eyelids)” value ([7]; 0.014 g/kg body weight) was 5 and the “Number of animals which close the eyelids at 2 h after the administration, □ (close eyelids)” value ([7]; 0.014 g/kg body weight) was 4. The “Number of animals which close the eyelids at 6 h after the administration, ± (semi-open eyelids)” value ([7]; 0.014 g/kg body weight) was 11, the “Number of animals which close the eyelids at 6 h after the administration, − (open eyelids)” value ([7]; 0.014 g/kg body weight) was 2 and the “Number of animals which close the eyelids at 6 h after the administration, □ (close eyelids)” value ([7]; 0.014 g/kg body weight) was 2. The “effect on reserpine-induced ptosis (in words)” value ([7]; 14 mg/kg body weight) was “antagonistic against reserpine-induced ptosis”, the “effect on 5-HTP-induced shaking-head behavior (in words)” value [8] was “notably increase the times of 5-HTP-induced shaking-head behavior” and the “Number of animals that have excircle behaviors at 2 h, Excircle (+)” value ([9]; 0.014 g/kg body weight) was 15. For the same compound, the “Number of animals that have excircle behaviors at 2 h, Within circle (□)” value ([9]; 0.014 g/kg body weight) was 0, the “Number of animals that have excircle behaviors at 4 h, Excircle (+)” value ([9]; 0.014 g/kg body weight) was 15 and the “Number of animals that have excircle behaviors at 4 h, Within circle (□)” value ([9]; 0.014 g/kg body weight) was 0. For the same compound, the “Number of animals that have excircle behaviors at 6 h, Excircle (+)” value ([9]; 0.014 g/kg body weight) was 14, the “Number of animals that have excircle behaviors at 6 h, Within circle (□)” value ([9]; 0.014 g/kg body weight) was 1 and the “effect on “excircle” rate of reserpine mice (in words)” value ([9]; 14 mg/kg body weight) was “notably increase the “excircle” rate”.
`CN(C)CCC=C1c2ccccc2CCc2ccccc21` [amitriptyline, Amitriptyline Hydrochloride] was tested, and the “effect on NA and DA in brain tissue of reserpine mice (in words)” value ([4]; 50 mg/kg body weight) was “notably enhance the level of NA and DA”, the “5-HT in the brain tissue of reserpine mice” value [4, 13] was 557.57 ± 174.75 ng/g and the “DA in the brain tissue of reserpine mice” value [4, 13] was 1806.61 ± 275.37 ng/g. The “NA in the brain tissue of reserpine mice” value [4, 13] was 1023.46 ± 619.56 ng/g, the “5-HT in the brain tissue of normal mice” value ([5]; 0.05 g/kg body weight) was 1015.17 ng/g and the “DA in the brain tissue of normal mice” value ([5]; 0.05 g/kg body weight) was 1519.29 ± 373.72 ng/g. The “NA in the brain tissue of normal mice” value ([5]; 0.05 g/kg body weight) was 803.54 ng/g, the “effect on 5-HT in brain tissue of normal mice (in words)” value [5, 14] was “notably increase the level of 5-HT” and the “effect on NA and DA in brain tissue of normal mice (in words)” value [5, 14] was “increase the level of NA and DA”. The “Body temperature difference, 6 h after making models” value [6, 15] was 2.38 ± 1.30 □, the “Body temperature, 6 h after making models” value [6, 15] was 34.36 ± 1.12 □ and the “effect on fall in body temperature caused by reserpine (in words)” value ([6]; 50 mg/kg body weight) was “notably antagonize the fall in body temperature”. For the same compound, the “Number of animals which close the eyelids at 1 h after the administration, ± (semi-open eyelids)” value ([7]; 0.050 g/kg body weight) was 10, the “Number of animals which close the eyelids at 1 h after the administration, − (open eyelids)” value ([7]; 0.050 g/kg body weight) was 4 and the “Number of animals which close the eyelids at 1 h after the administration, □ (close eyelids)” value ([7]; 0.050 g/kg body weight) was 1. For the same compound, the “Number of animals which close the eyelids at 2 h after the administration, ± (semi-open eyelids)” value ([7]; 0.050 g/kg body weight) was 11, the “Number of animals which close the eyelids at 2 h after the administration, − (open eyelids)” value ([7]; 0.050 g/kg body weight) was 2 and the “Number of animals which close the eyelids at 2 h after the administration, □ (close eyelids)” value ([7]; 0.050 g/kg body weight) was 2. The “Number of animals which close the eyelids at 6 h after the administration, ± (semi-open eyelids)” value ([7]; 0.050 g/kg body weight) was 12, the “Number of animals which close the eyelids at 6 h after the administration, − (open eyelids)” value ([7]; 0.050 g/kg body weight) was 0 and the “Number of animals which close the eyelids at 6 h after the administration, □ (close eyelids)” value ([7]; 0.050 g/kg body weight) was 3. The “effect on reserpine-induced ptosis (in words)” value ([7]; 50 mg/kg body weight) was “antagonistic against reserpine-induced ptosis”, the “Number of animals that have excircle behaviors at 2 h, Excircle (+)” value ([9]; 0.050 g/kg body weight) was 15 and the “Number of animals that have excircle behaviors at 2 h, Within circle (□)” value ([9]; 0.050 g/kg body weight) was 0. For the same compound, the “Number of animals that have excircle behaviors at 4 h, Excircle (+)” value ([9]; 0.050 g/kg body weight) was 13, the “Number of animals that have excircle behaviors at 4 h, Within circle (□)” value ([9]; 0.050 g/kg body weight) was 2 and the “Number of animals that have excircle behaviors at 6 h, Excircle (+)” value ([9]; 0.050 g/kg body weight) was 13. For the same compound, the “Number of animals that have excircle behaviors at 6 h, Within circle (□)” value ([9]; 0.050 g/kg body weight) was 2 and the “effect on “excircle” rate of reserpine mice (in words)” value ([9]; 50 mg/kg body weight) was “notably increase the “excircle” rate”.
